Test results taken from patent US8283291B2, “Herbicidal composition” (Kumiai Chemical Industry Co., Ltd., priority 2006, dated 2012).

Assays:
common chickweed (STEME) [1] = assay: Test 3 on herbicidal effects against weeds and phytotoxicity by upland soil treatment; assay type: in vivo, Stellaria media; conditions: 28th day
Text: (§1) In a plastic pot of 14 cm in length×23 cm in width×8 cm in depth, upland soil was filled, and seeds of soybean (GLXMA), corn (ZEAMX), Ipomoea lacunosa L. (IPOLA) and velvetleaf (ABUTH) were sown and covered with soil. A wettable powder prepared in accordance with Formulation Example 1 was weighed so that the active ingredients became the prescribed amounts, diluted with water and uniformly applied to the soil surface by means of a small size spray at a rate of 500 liters per 1 hectare. Thereafter, cultivation was carried out in a greenhouse, and on the 28th day after the treatment, the herbicidal effects and phytotoxicity were examined in accordance with the standards as identified in Table 15.
(§2) The test on herbicidal effects and phytotoxicity against corn (ZEAMX), barnyardgrass (ECHCG), common chickweed (STEME) and common lambsquater (CHEAL) was carried out in the same manner as the above Test Example 1.

[2] = system: Persian speedwell (VERPE); assay: Test 2 on herbicidal effects against weeds and phytotoxicity by upland soil treatment; assay type: in vivo; conditions: 28th day
Text: as §1
(§3) The test on herbicidal effects and phytotoxicity against wheat (TRZAW), common chickweed (STEME) and Persian speedwell (VERPE) was carried out in the same manner as the above Test Example 1.

italian ryegrass (LOLMU) = assay: Test 4 on herbicidal effects against weeds and phytotoxicity by upland soil treatment; assay type: in vivo; conditions: 50 gai/ha, 28th day
Text: as §1
(§4) The test on herbicidal effects and phytotoxicity against wheat (TRZAW), italian ryegrass (LOLMU), common chickweed (STEME) and common lambsquater (CHEAL) was carried out in the same manner as the above Test Example 1.

common chickweed (STEME) [3] = assay: Test 2 on herbicidal effects against weeds and phytotoxicity by upland soil treatment; assay type: in vivo, Stellaria media; conditions: 28th day
Text: as §1, §3

[4] = system: common lambsquater (CHEAL); assay: Test 3 on herbicidal effects against weeds and phytotoxicity by upland soil treatment; assay type: in vivo, Chenopodium album; conditions: 28th day
Text: as §1, §2

barnyardgrass (ECHCG) = assay: as above; assay type: in vivo, Echinochloa crus-galli; conditions: 28th day
Text: as §1, §2

common chickweed (STEME) [5] = assay: Test 4 on herbicidal effects against weeds and phytotoxicity by upland soil treatment; assay type: in vivo, Stellaria media; conditions: 50 gai/ha, 28th day
Text: as §1, §4

corn (ZEAMX) [6] = assay: Test on effects of reducing phytotoxicity against corn by upland soil treatment; assay type: in vivo; conditions: 21st day
Method: In a plastic pot of 11 cm in length×11 cm in width×11 cm in depth, upland soil was filled, and seeds of corn (ZEAMX) were sown and covered with soil. A wettable powder prepared in accordance with Formulation Example 1 was weighed so that the active ingredients would be the prescribed amounts, diluted with water and uniformly applied to the soil surface by means of a small size spray at a rate of 500 liter per 1 hectare. Then, cultivation was carried out in a greenhouse, and on the 21st day after the treatment, the phytotoxicity against corn was examined in accordance with the standards as identified in Table 15.

corn (ZEAMX) [7] = assay: Test on herbicidal effects against weeds and phytotoxicity by foliage treatment in upland field; assay type: in vivo; conditions: 21st day
Method: (§5) In a plastic pot of 11 cm in length×11 cm in width×11 cm in depth, the upland soil was filled, and seeds of corn (ZEAMX), soybean (GLXMA), greenfoxtail (SETVI), shattercane (SORVU), redroot pigweed (AMARE), Ipomoea lacunosa L. (IPOLA) and velvetleaf (ABUTH) were sown and covered with soil.
(§6) Then, cultivation was carried out in a greenhouse for 10 days. Then, a wettable powder prepared in accordance with Formulation Example 1 was weighed so that active ingredients would be the prescribed amounts, […] spray at a rate of 500 liter per 1 hectare. Thereafter, cultivation was carried out in a greenhouse, and on the 21st day after the treatment, the herbicidal effects and phytotoxicity were examined in accordance with the standards as identified in Table 15.

soybean (GLXMA) [8] = assay: as above; assay type: in vivo; conditions: 21st day
Method: as §5, §6

soybean (GLXMA) [9] = assay: Test 1 on herbicidal effects against weeds and phytotoxicity by upland soil treatment; assay type: in vivo; conditions: 28th day
Method: (§7) In a plastic pot of 14 cm in length×23 cm in width×8 cm in depth, upland soil was filled, and seeds of soybean (GLXMA), corn (ZEAMX), Ipomoea lacunosa L. (IPOLA) and velvetleaf (ABUTH) were sown and covered with soil. […] Thereafter, cultivation was carried out in a greenhouse, and on the 28th day after the treatment, the herbicidal effects and phytotoxicity were examined in accordance with the standards as identified in Table 15.

[10] = system: Ipomoea lacunosa L. (IPOLA); assay: as above; assay type: in vivo; conditions: 400 gai/ha, 28th day
Text: as §1

velvetleaf (ABUTH) = assay: as above; assay type: in vivo, Abutilon theophrasti; conditions: 400 gai/ha, 28th day
Text: as §1

corn (ZEAMX) [11] = assay: as above; assay type: in vivo; conditions: 28th day
Method: as §7

wheat (TRZAW) = assay: Test 2 on herbicidal effects against weeds and phytotoxicity by upland soil treatment; assay type: in vivo; conditions: 28th day
Text: as §1, §3

Cn1nc(C(F)(F)F)c(CS(=O)(=O)C2=NOC(C)(C)C2)c1OC(F)F [3-0054, 3-[(5-difluoromethoxy-1-methyl-3-trifluoromethylpyrazol-4-yl)methylsulfonyl]-4,5-dihydro-5,5-dimethylisoxazole]
herbicidal effect STEME (common chickweed (STEME) [1]; 62.5 gai/ha): 5 (Herbicidal effect or phytotoxicity of at least 50% and less than 60%) | herbicidal effect VERPE ([2]; 18.8 gai/ha): 7 (Herbicidal effect or phytotoxicity of at least 70% and less than 80%) | herbicidal effect LOLMU (italian ryegrass (LOLMU)): 8 (Herbicidal effect or phytotoxicity of at least 80% and less than 90%) | herbicidal effect STEME (common chickweed (STEME) [3]; 18.8 gai/ha): 5 (Herbicidal effect or phytotoxicity of at least 50% and less than 60%) | herbicidal effect CHEAL ([4]; 62.5 gai/ha): 4 (Herbicidal effect or phytotoxicity of at least 40% and less than 50%) | herbicidal effect ECHCG (barnyardgrass (ECHCG); 62.5 gai/ha): 10 (Herbicidal effect or phytotoxicity of 100%) | herbicidal effect STEME (common chickweed (STEME) [5]): 4 (Herbicidal effect or phytotoxicity of at least 40% and less than 50%)

CCNc1nc(Cl)nc(NC(C)C)n1 [Atrazine]
phytotoxicity against corn ZEAMX (corn (ZEAMX) [6]; 2500 gai/ha): 0 (Herbicidal effect or phytotoxicity of at least 0% and less than 10%)

CC1COc2ccccc2N1C(=O)C(Cl)Cl (stereo not shown) [Benoxacor]
phytotoxicity against corn ZEAMX (corn (ZEAMX) [6]; 50 gai/ha): 0 (Herbicidal effect or phytotoxicity of at least 0% and less than 10%)

CC(C)N1C(=O)c2ccccc2NS1(=O)=O [Bentazone]
phytotoxicity ZEAMX (corn (ZEAMX) [7]; 400 gai/ha): 0 (Herbicidal effect or phytotoxicity of at least 0% and less than 10%) | phytotoxicity GLXMA (soybean (GLXMA) [8]; 400 gai/ha): 0 (Herbicidal effect or phytotoxicity of at least 0% and less than 10%)

C[C@H](NC(=O)[C@H](C)NC(=O)[C@@H](N)CCP(C)(=O)O)C(=O)O [Bilanafos]
phytotoxicity ZEAMX (corn (ZEAMX) [7]; 1000 gai/ha): 9 (Herbicidal effect or phytotoxicity of at least 90% and less than 100%) | phytotoxicity GLXMA (soybean (GLXMA) [8]; 1000 gai/ha): 9 (Herbicidal effect or phytotoxicity of at least 90% and less than 100%)

COc1cc(OC)nc(Oc2cccc(Oc3nc(OC)cc(OC)n3)c2C(=O)O)n1 [Bispyribac-sodium]
phytotoxicity ZEAMX (corn (ZEAMX) [7]; 12.5 gai/ha): 0 (Herbicidal effect or phytotoxicity of at least 0% and less than 10%) | phytotoxicity GLXMA (soybean (GLXMA) [8]; 12.5 gai/ha): 9 (Herbicidal effect or phytotoxicity of at least 90% and less than 100%)

CCOC(=O)c1ccccc1S(=O)(=O)NC(=O)Nc1nc(Cl)cc(OC)n1 [Chlorimuron-ethyl]
phytotoxicity ZEAMX (corn (ZEAMX) [7]; 6.3 gai/ha): 4 (Herbicidal effect or phytotoxicity of at least 40% and less than 50%) | phytotoxicity GLXMA (soybean (GLXMA) [8]; 6.3 gai/ha): 0 (Herbicidal effect or phytotoxicity of at least 0% and less than 10%)

CC1(C)CON(Cc2ccccc2Cl)C1=O [Clomazone]
phytotoxicity GLXMA (soybean (GLXMA) [9]; 200 gai/ha): 0 (Herbicidal effect or phytotoxicity of at least 0% and less than 10%)

COC[C@H](C)N(C(=O)CCl)c1c(C)csc1C [Dimethenamid-P]
herbicidal effect IPOLA [10]: 5 (Herbicidal effect or phytotoxicity of at least 50% and less than 60%) | herbicidal effect ABUTH (velvetleaf (ABUTH)): 7 (Herbicidal effect or phytotoxicity of at least 70% and less than 80%)

CN(C)C(=O)Nc1ccc(Cl)c(Cl)c1 [Diuron]
phytotoxicity ZEAMX (corn (ZEAMX) [11]; 800 gai/ha): 8 (Herbicidal effect or phytotoxicity of at least 80% and less than 90%) | phytotoxicity GLXMA (soybean (GLXMA) [9]; 800 gai/ha): 8 (Herbicidal effect or phytotoxicity of at least 80% and less than 90%)

COC(=O)CSc1cc(/N=c2\sc(=O)n3n2CCCC3)c(F)cc1Cl [Fluthiacet-methyl]
phytotoxicity ZEAMX (corn (ZEAMX) [7]; 10 gai/ha): 0 (Herbicidal effect or phytotoxicity of at least 0% and less than 10%) | phytotoxicity GLXMA (soybean (GLXMA) [8]; 10 gai/ha): 0 (Herbicidal effect or phytotoxicity of at least 0% and less than 10%)

CC(C)c1ccc(NC(=O)N(C)C)cc1 [Isoproturon]
herbicidal effect VERPE ([2]; 375 gai/ha): 5 (Herbicidal effect or phytotoxicity of at least 50% and less than 60%) | herbicidal effect STEME (common chickweed (STEME) [3]; 375 gai/ha): 6 (Herbicidal effect or phytotoxicity of at least 60% and less than 70%)

CNc1cnn(-c2cccc(C(F)(F)F)c2)c(=O)c1Cl [Norflurazon]
phytotoxicity ZEAMX (corn (ZEAMX) [11]; 400 gai/ha): 9 (Herbicidal effect or phytotoxicity of at least 90% and less than 100%) | phytotoxicity GLXMA (soybean (GLXMA) [9]; 400 gai/ha): 1 (Herbicidal effect or phytotoxicity of at least 10% and less than 20%)

C[n+]1ccc(-c2cc[n+](C)cc2)cc1 [Paraquat]
phytotoxicity ZEAMX (corn (ZEAMX) [7]; 500 gai/ha): 6 (Herbicidal effect or phytotoxicity of at least 60% and less than 70%) | phytotoxicity GLXMA (soybean (GLXMA) [8]; 500 gai/ha): 10 (Herbicidal effect or phytotoxicity of 100%)

O=C(Nc1ccc(F)cc1)c1cccc(Oc2cccc(C(F)(F)F)c2)n1 [Picolinafen]
phytotoxicity TRZAW (wheat (TRZAW); 16 gai/ha): 0 (Herbicidal effect or phytotoxicity of at least 0% and less than 10%) | herbicidal effect VERPE ([2]; 16 gai/ha): 6 (Herbicidal effect or phytotoxicity of at least 60% and less than 70%) | herbicidal effect STEME (common chickweed (STEME) [3]; 16 gai/ha): 5 (Herbicidal effect or phytotoxicity of at least 50% and less than 60%)

CCCN(CCC)C(=O)SCc1ccccc1 [Prosulfocarb]
herbicidal effect STEME (common chickweed (STEME) [1]; 1600 gai/ha): 5 (Herbicidal effect or phytotoxicity of at least 50% and less than 60%) | herbicidal effect CHEAL ([4]; 1600 gai/ha): 5 (Herbicidal effect or phytotoxicity of at least 50% and less than 60%) | herbicidal effect ECHCG (barnyardgrass (ECHCG); 1600 gai/ha): 2 (Herbicidal effect or phytotoxicity of at least 20% and less than 30%)

CCOC(=O)C(C)Oc1ccc(Oc2cnc3cc(Cl)ccc3n2)cc1 (stereo not shown) [Quizalofop-ethyl]
phytotoxicity ZEAMX (corn (ZEAMX) [7]; 25 gai/ha): 10 (Herbicidal effect or phytotoxicity of 100%) | phytotoxicity GLXMA (soybean (GLXMA) [8]; 25 gai/ha): 0 (Herbicidal effect or phytotoxicity of at least 0% and less than 10%)

CCC/C(=N\OCC)C1=C(O)CC(CC(C)SCC)CC1=O (stereo not shown) [Sethoxydim]
phytotoxicity ZEAMX (corn (ZEAMX) [7]; 100 gai/ha): 9 (Herbicidal effect or phytotoxicity of at least 90% and less than 100%) | phytotoxicity GLXMA (soybean (GLXMA) [8]; 100 gai/ha): 0 (Herbicidal effect or phytotoxicity of at least 0% and less than 10%)

CS(=O)(=O)c1ccc(C(=O)C2C(=O)CCCC2=O)c(Cl)c1 [Sulcotrione]
phytotoxicity against corn ZEAMX (corn (ZEAMX) [6]; 1000 gai/ha): 1 (Herbicidal effect or phytotoxicity of at least 10% and less than 20%) | phytotoxicity ZEAMX (corn (ZEAMX) [7]; 25 gai/ha): 0 (Herbicidal effect or phytotoxicity of at least 0% and less than 10%) | phytotoxicity GLXMA (soybean (GLXMA) [8]; 25 gai/ha): 6 (Herbicidal effect or phytotoxicity of at least 60% and less than 70%)

CCCN(CCC)c1c([N+](=O)[O-])cc(C(F)(F)F)cc1[N+](=O)[O-] [Trifluralin]
phytotoxicity TRZAW (wheat (TRZAW); 250 gai/ha): 0 (Herbicidal effect or phytotoxicity of at least 0% and less than 10%) | herbicidal effect VERPE ([2]; 250 gai/ha): 7 (Herbicidal effect or phytotoxicity of at least 70% and less than 80%) | herbicidal effect STEME (common chickweed (STEME) [3]; 250 gai/ha): 10 (Herbicidal effect or phytotoxicity of 100%)
